Measured values taken from ChEMBL document CHEMBL1140855, “Design, synthesis, and binding affinities of potential positron emission tomography (PET) ligands with optimal lipophilicity for brain imaging of the dopamine D3 receptor. Part II” (Bioorg Med Chem, 2009).

Tests used:
[1] = Lipophilicity, log P of the compound; type: physicochemical; settings: octanol/water
[2] = Lipophilicity, log P at pH 7.4; type: physicochemical; settings: buffer
[3] = Dissociation constant, pKa of the compound; type: physicochemical
D(3) dopamine receptor = D(3) dopamine receptor (Homo sapiens, UniProt P35462)
Sequence of D(3) dopamine receptor (P35462 whole entry): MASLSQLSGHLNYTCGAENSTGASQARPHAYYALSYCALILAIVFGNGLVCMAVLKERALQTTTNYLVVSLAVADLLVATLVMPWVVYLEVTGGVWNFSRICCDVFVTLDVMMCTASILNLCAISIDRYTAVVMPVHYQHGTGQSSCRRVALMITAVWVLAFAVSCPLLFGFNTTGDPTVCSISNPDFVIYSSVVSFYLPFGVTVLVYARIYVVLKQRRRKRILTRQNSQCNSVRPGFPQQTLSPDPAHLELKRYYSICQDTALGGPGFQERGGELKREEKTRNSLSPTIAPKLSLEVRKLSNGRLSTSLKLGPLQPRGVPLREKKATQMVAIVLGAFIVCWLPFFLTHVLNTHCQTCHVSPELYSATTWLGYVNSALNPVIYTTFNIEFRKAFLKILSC
Description: Displacement of [3H]spiroperidol from human cloned dopamine D3 receptor by liquid scintillation counting

D(2) dopamine receptor = D(2) dopamine receptor (Homo sapiens, UniProt P14416)
Sequence of D(2) dopamine receptor (P14416 whole entry): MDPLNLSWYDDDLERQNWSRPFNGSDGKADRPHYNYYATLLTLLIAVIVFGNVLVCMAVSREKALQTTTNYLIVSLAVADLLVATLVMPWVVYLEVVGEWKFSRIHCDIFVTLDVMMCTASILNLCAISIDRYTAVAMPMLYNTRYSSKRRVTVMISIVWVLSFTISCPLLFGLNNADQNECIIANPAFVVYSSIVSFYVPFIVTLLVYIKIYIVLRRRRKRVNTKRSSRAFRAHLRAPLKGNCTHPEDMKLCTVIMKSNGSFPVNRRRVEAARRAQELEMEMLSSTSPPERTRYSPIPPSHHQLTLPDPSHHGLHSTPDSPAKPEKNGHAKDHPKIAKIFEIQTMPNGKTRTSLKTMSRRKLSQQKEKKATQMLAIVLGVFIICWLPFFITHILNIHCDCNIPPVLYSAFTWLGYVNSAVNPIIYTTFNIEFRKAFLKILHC
Description: Displacement of [3H]spiroperidol from human cloned dopamine D2L receptor by liquid scintillation counting

SMILES: COc1ccccc1N1CCN(CCCCNC(=O)c2ccc(-n3ccnc3)cc2)CC1
- logP [1]: 3.1
- logD [2]: 2.39
- pKa [3]: 8.05
- Ki (D(3) dopamine receptor): 4.23 nM
- Ki (D(2) dopamine receptor): 51.7 nM

SMILES: CCCN(CCC)C1CCc2cc(CS(=O)(=O)c3ccc(OC)cc3)ccc2C1 (configuration not stated)
- Ki (D(3) dopamine receptor): 1.3 nM

SMILES: COc1ccccc1N1CCN(CCCCNC(=O)c2ccc3nonc3c2)CC1
- logP [1]: 2.79
- logD [2]: 2.26
- pKa [3]: 7.78
- Ki (D(3) dopamine receptor): 4.7 nM
- Ki (D(2) dopamine receptor): 31 nM

SMILES: COc1ccc(N2CCN(CCCCNC(=O)c3ccc4nonc4c3)CC2)cc1
- logP [1]: 2.77
- logD [2]: 2.41
- pKa [3]: 7.51
- Ki (D(3) dopamine receptor): 6220 nM
- Ki (D(2) dopamine receptor): > 1000 nM

SMILES: COc1ccccc1N1CCN(CCCNC(=O)c2ccc3nonc3c2)CC1
- logP [1]: 2.66
- logD [2]: 2.34
- pKa [3]: 7.43
- Ki (D(3) dopamine receptor): > 1000 nM
- Ki (D(2) dopamine receptor): 89.4 nM

SMILES: O=C(NCCCCN1CCN(c2ccccc2OCCF)CC1)c1ccc(-n2ccnc2)cc1
- logP [1]: 2.9
- logD [2]: 2.4
- pKa [3]: 7.74
- Ki (D(3) dopamine receptor): 2.95 nM
- Ki (D(2) dopamine receptor): 5.92 nM

SMILES: COc1ccc(N2CCN(CCCCNC(=O)c3ccc(-n4ccnc4)cc3)CC2)cc1
- logP [1]: 2.8
- logD [2]: 2.37
- pKa [3]: 7.64
- Ki (D(3) dopamine receptor): 211 nM
- Ki (D(2) dopamine receptor): > 1000 nM

SMILES: COc1cc(F)cc(N2CCN(CCCCNC(=O)c3ccc4nonc4c3)CC2)c1
- logP [1]: 3.34
- logD [2]: 3.12
- pKa [3]: 7.34
- Ki (D(3) dopamine receptor): 658 nM
- Ki (D(2) dopamine receptor): 1340 nM

SMILES: COc1cccc(N2CCN(CCCCNC(=O)c3ccc4nonc4c3)CC2)c1
- logP [1]: 2.8
- logD [2]: 2.48
- pKa [3]: 7.44
- Ki (D(3) dopamine receptor): 170 nM
- Ki (D(2) dopamine receptor): > 100 nM

SMILES: O=C(NCCCCN1CCN(c2cccc(OCCF)c2)CC1)c1ccc(-n2ccnc2)cc1
- logP [1]: 2.9
- logD [2]: 2.51
- pKa [3]: 7.56
- Ki (D(3) dopamine receptor): 47.2 nM
- Ki (D(2) dopamine receptor): 196 nM

SMILES: O=C(NCCCCN1CCN(c2cccc(OCCF)c2)CC1)c1ccc2nonc2c1
- logP [1]: 2.87
- logD [2]: 2.53
- pKa [3]: 7.47
- Ki (D(3) dopamine receptor): 226 nM
- Ki (D(2) dopamine receptor): > 1000 nM

SMILES: COc1ccccc1N1CCN(CCCCOc2ccc(C3CN4C=CSC4=N3)cc2)CC1 (configuration not stated)
- Ki (D(3) dopamine receptor): 0.12 nM

SMILES: COc1ccccc1N1CCN(CCCNC(=O)c2ccc(-n3ccnc3)cc2)CC1
- logP [1]: 2.59
- logD [2]: 2.22
- pKa [3]: 7.53
- Ki (D(3) dopamine receptor): 95.3 nM
- Ki (D(2) dopamine receptor): 121 nM

SMILES: COc1cccc(N2CCN(CCCCNC(=O)c3ccc(-n4ccnc4)cc3)CC2)c1
- logP [1]: 2.93
- logD [2]: 2.51
- pKa [3]: 7.59
- Ki (D(3) dopamine receptor): 19.9 nM
- Ki (D(2) dopamine receptor): 243 nM

SMILES: COc1cc(F)cc(N2CCN(CCCCNC(=O)c3ccc(-n4ccnc4)cc3)CC2)c1
- logP [1]: 3.16
- logD [2]: 2.8
- pKa [3]: 7.52
- Ki (D(3) dopamine receptor): 29.2 nM
- Ki (D(2) dopamine receptor): 133 nM

SMILES: O=C(NCCCCN1CCN(c2ccccc2OCCF)CC1)c1ccc2nonc2c1
- logP [1]: 2.79
- logD [2]: 2.26
- pKa [3]: 7.78
- Ki (D(3) dopamine receptor): 22.1 nM
- Ki (D(2) dopamine receptor): 17.8 nM
